Measured values reported in ChEMBL document CHEMBL3046573, “Baseline sensitivity of Pestalotiopsis microspora, which causes black spot disease on Chinese hickory (Carya cathayensis), to pyraclostrobin” (Crop Prot, 2012).
In brackets after ≈: the same amount, converted by molar mass.

Legend:
[1] = system: Pestalotiopsis microspora; assay: Resistance factor, ratio of EC50 for pyraclostrobin-resistant mutant Pestalotiopsis microspora isolate LA1R2 to EC50 for wild type Pestalotiopsis microspora isolate LA-1; assay type: functional
[2] = system: Pestalotiopsis microspora; assay: Resistance factor, ratio of EC50 for pyraclostrobin-resistant mutant Pestalotiopsis microspora isolate LA1R1 to EC50 for wild type Pestalotiopsis microspora isolate LA-1; assay type: functional
[3] = system: Pestalotiopsis microspora; assay: Fungicidal activity against pyraclostrobin-resistant mutant Pestalotiopsis microspora isolate CA8R3 assessed as conidium germination inhibition at 25 degC; assay type: functional, organism-based
[4] = system: Pestalotiopsis microspora; assay: Fungicidal activity against pyraclostrobin-resistant mutant Pestalotiopsis microspora isolate CA8R2 assessed as conidium germination inhibition at 25 degC; assay type: functional, organism-based
[5] = system: Pestalotiopsis microspora; assay: Fungicidal activity against pyraclostrobin-resistant mutant Pestalotiopsis microspora isolate CA8R1 assessed as conidium germination inhibition at 25 degC; assay type: functional, organism-based
[6] = system: Pestalotiopsis microspora; assay: Fungicidal activity against wild type Pestalotiopsis microspora isolate CA-8 assessed as conidium germination inhibition at 25 degC; assay type: functional, organism-based
[7] = system: Pestalotiopsis microspora; assay: Fungicidal activity against pyraclostrobin-resistant mutant Pestalotiopsis microspora isolate LA1R2 assessed as conidium germination inhibition at 25 degC; assay type: functional, organism-based
[8] = system: Pestalotiopsis microspora; assay: Fungicidal activity against pyraclostrobin-resistant mutant Pestalotiopsis microspora isolate LA1R1 assessed as conidium germination inhibition at 25 degC; assay type: functional, organism-based
[9] = system: Pestalotiopsis microspora; assay: Fungicidal activity against wild type Pestalotiopsis microspora isolate LA-1 assessed as conidium germination inhibition at 25 degC; assay type: functional, organism-based
[10] = system: Pestalotiopsis microspora; assay: Fungicidal activity against Pestalotiopsis microspora infected in Chinese hickory orchards assessed as conidium germination inhibition at 25 degC after 24 hr; assay type: functional, organism-based
[11] = system: Pestalotiopsis microspora; assay: Fungicidal activity against Pestalotiopsis microspora infected Chinese hickory orchards assessed as mycelial growth inhibition at 25 degC after 5 days; assay type: functional, organism-based; conditions: 120 h
[12] = system: Pestalotiopsis microspora; assay: Resistance factor, ratio of EC50 for pyraclostrobin-resistant mutant Pestalotiopsis microspora isolate CA8R3 to EC50 for wild type Pestalotiopsis microspora isolate CA-8; assay type: functional
[13] = system: Pestalotiopsis microspora; assay: Resistance factor, ratio of EC50 for pyraclostrobin-resistant mutant Pestalotiopsis microspora isolate CA8R2 to EC50 for wild type Pestalotiopsis microspora isolate CA-8; assay type: functional
[14] = system: Pestalotiopsis microspora; assay: Resistance factor, ratio of EC50 for pyraclostrobin-resistant mutant Pestalotiopsis microspora isolate CA8R1 to EC50 for wild type Pestalotiopsis microspora isolate CA-8; assay type: functional
[15] = system: Pestalotiopsis microspora; assay: Fungicidal activity against Pestalotiopsis microspora isolates infected Chinese hickory orchards by conidium germination test; assay type: functional, organism-based

Compound	Ratio EC50 [1]	Ratio EC50 [2]	EC50 [3] [µg/mL]	EC50 [4] [µg/mL]	EC50 [5] [µg/mL]	EC50 [6] [µg/mL]	EC50 [7] [µg/mL]	EC50 [8] [µg/mL]	EC50 [9] [µg/mL]	EC50 [10] [µg/mL]	EC50 [11] [µg/mL]	Ratio EC50 [12]	Ratio EC50 [13]	Ratio EC50 [14]	EC50 [15] [µg/mL]
CO/C=C(/C(=O)OC)c1ccccc1Oc1cc(Oc2ccccc2C#N)ncn1 [AZOXYSTROBIN]	38.16	14.94	15.4 (≈ 38.2 µM)	21.9 (≈ 54.3 µM)	17.3 (≈ 42.9 µM)	0.76 (≈ 1.88 µM)	12.2 (≈ 30.3 µM)	4.78 (≈ 11.8 µM)	0.32 (≈ 0.793 µM)	1.36 (≈ 3.37 µM)	2.61 (≈ 6.47 µM)	20.25	28.82	22.75	–
O=C(Nc1ccccc1-c1ccc(Cl)cc1)c1cccnc1Cl [BOSCALID]	1.02	0.98	19 (≈ 55.4 µM)	17.7 (≈ 51.6 µM)	18.1 (≈ 52.7 µM)	18.6 (≈ 54.2 µM)	20.6 (≈ 60 µM)	19.7 (≈ 57.4 µM)	20.1 (≈ 58.6 µM)	23.9 (≈ 69.7 µM)	167 (≈ 486 µM)	1.05	0.95	0.97	–
N#Cc1c(Cl)c(Cl)c(Cl)c(C#N)c1Cl [CHLOROTHALONIL]	–	–	–	–	–	–	–	–	–	3.05 (≈ 11.5 µM)	2.08 (≈ 7.82 µM)	–	–	–	–
CC1COC(Cn2cncn2)(c2ccc(Oc3ccc(Cl)cc3)cc2Cl)O1 (configuration not stated) [DIFENOCONAZOLE]	–	–	–	–	–	–	–	–	–	28.5 (≈ 70.1 µM)	4.27 (≈ 10.5 µM)	–	–	–	–
CC(=O)O.CCCCCCCCCCCCNC(=N)N [DODINE]	–	–	–	–	–	–	–	–	–	32.7	27	–	–	–	–
CC(C)NC(=O)N1CC(=O)N(c2cc(Cl)cc(Cl)c2)C1=O [IPRODIONE]	–	–	–	–	–	–	–	–	–	9.87 (≈ 29.9 µM)	2.03 (≈ 6.15 µM)	–	–	–	–
CC12CC1(C)C(=O)N(c1cc(Cl)cc(Cl)c1)C2=O (configuration not stated) [PROCYMIDONE]	–	–	–	–	–	–	–	–	–	12 (≈ 42.3 µM)	1.68 (≈ 5.91 µM)	–	–	–	–
COC(=O)N(OC)c1ccccc1COc1ccn(-c2ccc(Cl)cc2)n1 [PYRACLOSTROBIN]	406	179	4.25 (≈ 11 µM)	9.59 (≈ 24.7 µM)	8.17 (≈ 21.1 µM)	0.04 (≈ 0.103 µM)	12.2 (≈ 31.4 µM)	5.67 (≈ 14.6 µM)	0.03 (≈ 0.0774 µM)	0.08 (≈ 0.206 µM)	0.92 (≈ 2.37 µM)	106	240	204	0.13 (≈ 0.335 µM)
CC(C)(C)C(O)(CCc1ccc(Cl)cc1)Cn1cncn1 (configuration not stated) [TEBUCONAZOLE]	–	–	–	–	–	–	–	–	–	20.1 (≈ 65.3 µM)	1.42 (≈ 4.61 µM)	–	–	–	–
COC(=O)NC(=S)Nc1ccccc1NC(=S)NC(=O)OC [THIOPHANATE METHYL]	–	–	–	–	–	–	–	–	–	25.7 (≈ 75 µM)	1.45 (≈ 4.23 µM)	–	–	–	–
